{"source": "patent US10208007B2", "about": "“Use of strigolactones and strigolactone analogs for treating proliferative conditions” (The State of Israel, Ministry of Agriculture & Rural …, priority 2011, dated 2019)", "key": {"MDA-MB-436": {"test_system": "MDA-MB-436", "assay": "XTT viability assay", "format": "cell-based, human", "conditions": "MDA-MB-436, 3 days", "protocol": "(§1) Viability was assayed after 3 days (XTT, ATCC). IC50 concentrations are indicated (Table 3 above)."}, "A549": {"test_system": "A549", "assay": "XTT viability assay", "format": "cell-based, human", "conditions": "A549, 3 days", "protocol": "as §1"}, "U20S cells [1]": {"test_system": "U20S cells", "assay": "XTT viability after timed exposure and strigolactone removal", "conditions": "Homo sapiens", "description": "At each time point the strigolactone analog was removed and the media was replaced with fresh growth media without strigolactone analog. […] In addition, viability of MDA-MB-231 cells was assessed after 24 hours by using an XTT assay (FIG. 9B). […] After 2, 4 or 24 hours the media was removed, cells were washed and media was replaced with growth media minus strigolactone analog."}, "HCT116 cells": {"test_system": "HCT116 cells", "assay": "FACS analysis of phospho-Ser10 Histone-H3", "format": "cell-based, human", "conditions": "2.7% in vehicle controls", "protocol": "Adherent cells were trypsinyzed, washed twice with PBS and filtered through a […] cell sieve. DNA content was assessed by flow cytometry. Cells were seeded at densities of 1.5×10^5 cells (MDA-MB-231, MDA-MB-436), or 4×10^5 cells (MCF-7 and MCF10A), or 2×10^5 cells (SW480, HT-29), or 5×10^5 cells (HCT116), per well in DMEM with 10% FBS in 6-well plate culture dishes. […] After 48 hours, cells were washed twice with PBS (pH 7.4), centrifuged at 360 g for 10 minutes at 4° C., and fixed in chilled ethanol (70%; v/v in PBS) with gentle vortex mixing. To determine their DNA contents, the cells were stained with 40 μg/ml propidium iodide (hereinafter PI) and analyzed using a FACSCalibur flow cytometer and CellQuest analysis software (Becton Dickinson, San Jose, Calif.). Where phosphoHistone-H3 staining was carried out, cells were incubated with polyclonal antibody against phosphoHistone H3 and then with secondary Goat anti-rabbit IgG-conjugated to FITC prior to PI staining.\nChromosome condensation at mitosis is accompanied by phosphorylation of histone H3. Accordingly, in order to determine if cells were arresting at G2 or M phase, HCT116 cells were analyzed for pS10 Histone H3 following strigolactone analogs exposure. […] To further quantify whether the growth inhibition observed in-vitro following strigolactone treatment was due in part to apoptosis, HCT116 cells were dual stained with Annexin V and PI (Prodidium Iodide). Annexin V staining indicate the inversion of the inner leaflet of the plasma membrane an early event of apoptosis. Late apoptosis is characterized by loss of membrane integrity and cells become permeable to PI. […] Cells were incubated for 48 hours and then co-stained with annexin-V and PI (FIG. 12F). Following treatment with 10 ppm and 15 ppm MEB-55, the percentage of late apoptotic cell increased from 3.6% to 62% and 85% respectively (FIG. 12F, lower panel). […] Dual Annexin V/PI staining analysis was also carried out on two other colon cancer cell lines, (SW480, HT29) following strigolactone treatment. Increased apoptosis was also observed in these lines following MEB-55 treatment in a dose dependent manner (FIG. 12D)."}, "U20S cells [2]": {"test_system": "U20S cells", "assay": "Strigolactone analog induced gene expression changes", "format": "cell-based, human", "conditions": "5 ppm", "protocol": "To further elucidate the transcriptional program by which strigolactone analogs may affect growth and survival of cancer cells, U20S cells were treated with ST-362 or MEB-55 (5 ppm) for either 6 or 24 hours to permit early and late gene expression changes to be distinguished. U20S cells were selected based on their enhanced sensitivity to strigolactone treatment (see FIG. 7). […] Up-regulation of cytokines (CCL3L3, GDF15) and growth factors (PGF), and down-regulation of TGFBR11 was also noted. Apoptosis regulating genes were also identified, including DDIT3, BIRC3 and BAG3. DDIT3 encodes a member of the CCAAT/enhancer-binding protein (C/EBP) family of transcription factors and functions as a dominant-negative inhibitor by forming heterodimers with other C/EBP members and preventing their DNA binding activity. DDIT3 is induced by stress, including DNA damage and DDIT3 over-expression can induce cell cycle arrest. After 6 hours, MEB-55 treatment was associated with increased expression of p21cip (CDKN1A), Cyclin F (CCNF), Cyclin A2 (CCNA2) and decreased expression of CDK6, whereas ST-362 induced only a modest down-regulation of Cyclin B1 (CCNB1). Therefore, changes in the expression profile of cell cycle regulators, was not a global hallmark of strigolactone exposure. The only exception was Cyclin G2 (CCNG2) whose expression was elevated in both ST-362 and MEB-55 treatment groups. Cyclin G2 is an unconventional cyclin homolog which is linked to growth inhibition and whose expression is induced by DNA damaging chemotherapeutics."}, "MDA-MB-231": {"test_system": "MDA-MB-231", "assay": "XTT viability after timed exposure and strigolactone removal", "format": "cell-based, human", "conditions": "5 and 10 ppm, XTT at 24 hours", "protocol": "As further detailed herein below in the Experimental section, strigolactones and strigolactone analogs inhibit growth through a G2-phase arrest and cause apoptosis at higher concentrations wherein the GR-24 treatment causes an increase in the percentage of MCF-7 and MDA-MB-231 cells in G2-phase. Cells were treated with strigolactone analogs to determine whether or not they alter cell cycle progression in the same way. Dose dependant increases in the percentage of cells in G2 phase were observed. […] After a total of 24 hours, an XTT assay was carried out."}}, "note": "“Also recorded” adds a separate entry of the source.", "data": [{"compound": "CC1=CC(O/C=C2\\Cc3c(n(C)c4cc(-c5cccs5)ccc34)C2=O)OC1=O", "note": "(racemic) [MEB-55, (±) 2E-4-methyl-2-(4-methyl-5-oxo-2,5-dihydrofuran-2-yloxymethylene)-6-thiophen-2-yl-1,4-dihydro-2H-cyclopenta[b]indol-3-one]", "values": [{"measurement": "IC50 at 72 h", "setting": "MDA-MB-436", "result": 8.3, "unit": "ppm"}, {"measurement": "IC50 at 72 h", "setting": "A549", "result": 6.9, "unit": "ppm"}, {"measurement": "viability at 10 ppm", "setting": "U20S cells [1]; 1 h", "result": 52, "unit": "%"}, {"measurement": "viability at 20 ppm", "setting": "U20S cells [1]; 1 h", "result": 40, "unit": "%"}, {"measurement": "viability at 10 ppm", "setting": "U20S cells [1]; 4 h", "result": 0, "unit": "%"}, {"measurement": "viability at 20 ppm", "setting": "U20S cells [1]; 4 h", "result": 0, "unit": "%"}, {"measurement": "Percentage of cells staining positive for pHistone H3", "setting": "HCT116 cells; 5 ppm", "result": 1.45, "unit": "%"}, {"measurement": "Percentage of cells staining positive for pHistone H3", "setting": "HCT116 cells; 7.5 ppm", "result": 0.9, "unit": "%"}, {"measurement": "Fold-Change ABCB1", "setting": "U20S cells [2]; 6 hours", "result": 8.1, "unit": "fold"}, {"measurement": "Fold-Change AHSA1", "setting": "U20S cells [2]; 6 hours", "result": 2.6, "unit": "fold"}, {"measurement": "Fold-Change ALDH1B1", "setting": "U20S cells [2]; 6 hours", "result": "−3.1", "unit": "fold"}, {"measurement": "Fold-Change ATF3", "setting": "U20S cells [2]; 6 hours", "result": 4.0, "unit": "fold"}, {"measurement": "Fold-Change BAG3", "setting": "U20S cells [2]; 6 hours", "result": 7.7, "unit": "fold"}, {"measurement": "Fold-Change BIRC3", "setting": "U20S cells [2]; 6 hours", "result": "−3.2", "unit": "fold"}, {"measurement": "Fold-Change CCNG2", "setting": "U20S cells [2]; 6 hours", "result": 3.1, "unit": "fold"}, {"measurement": "Fold-Change CLDN12", "setting": "U20S cells [2]; 6 hours", "result": 2.5, "unit": "fold"}, {"measurement": "Fold-Change CYP24A1", "setting": "U20S cells [2]; 6 hours", "result": "−3.6", "unit": "fold"}, {"measurement": "Fold-Change DDIT3", "setting": "U20S cells [2]; 6 hours", "result": 14.1, "unit": "fold"}, {"measurement": "Fold-Change FGF2", "setting": "U20S cells [2]; 6 hours", "result": 2.1, "unit": "fold"}, {"measurement": "Fold-Change FOXD1", "setting": "U20S cells [2]; 6 hours", "result": "−2.7", "unit": "fold"}, {"measurement": "Fold-Change FOXO4", "setting": "U20S cells [2]; 6 hours", "result": 2.2, "unit": "fold"}, {"measurement": "Fold-Change GDF15", "setting": "U20S cells [2]; 6 hours", "result": 19.0, "unit": "fold"}, {"measurement": "Fold-Change GEM", "setting": "U20S cells [2]; 6 hours", "result": 4.9, "unit": "fold"}, {"measurement": "Fold-Change HSPA1A", "setting": "U20S cells [2]; 6 hours", "result": 12.4, "unit": "fold"}, {"measurement": "Fold-Change HSPA1B", "setting": "U20S cells [2]; 6 hours", "result": 12.4, "unit": "fold"}, {"measurement": "Fold-Change HSPA1L", "setting": "U20S cells [2]; 6 hours", "result": 3.9, "unit": "fold"}, {"measurement": "Fold-Change HSPA6", "setting": "U20S cells [2]; 6 hours", "result": 158.7, "unit": "fold"}, {"measurement": "Fold-Change HSPA7", "setting": "U20S cells [2]; 6 hours", "result": 55.7, "unit": "fold"}, {"measurement": "Fold-Change HSPB8", "setting": "U20S cells [2]; 6 hours", "result": 3.6, "unit": "fold"}, {"measurement": "Fold-Change PGF", "setting": "U20S cells [2]; 6 hours", "result": 7.0, "unit": "fold"}, {"measurement": "Fold-Change PPP1R15A", "setting": "U20S cells [2]; 6 hours", "result": 3.7, "unit": "fold"}, {"measurement": "Fold-Change PTGS2", "setting": "U20S cells [2]; 6 hours", "result": 6.9, "unit": "fold"}, {"measurement": "Fold-Change SLC3A2", "setting": "U20S cells [2]; 6 hours", "result": 3.4, "unit": "fold"}, {"measurement": "Fold-Change SLC7A11", "setting": "U20S cells [2]; 6 hours", "result": 2.1, "unit": "fold"}, {"measurement": "Fold-Change SLC44A2", "setting": "U20S cells [2]; 6 hours", "result": 2.1, "unit": "fold"}, {"measurement": "Fold-Change TGFBR2", "setting": "U20S cells [2]; 6 hours", "result": "−2.3", "unit": "fold"}, {"measurement": "Fold-Change ABCA13", "setting": "U20S cells [2]; 24 hours", "result": "−2.6", "unit": "fold"}, {"measurement": "Fold-Change AMPH", "setting": "U20S cells [2]; 24 hours", "result": "−2.7", "unit": "fold"}, {"measurement": "Fold-Change BIRC3", "setting": "U20S cells [2]; 24 hours", "result": 2.4, "unit": "fold"}, {"measurement": "Fold-Change CCL20", "setting": "U20S cells [2]; 24 hours", "result": 11.9, "unit": "fold"}, {"measurement": "Fold-Change CTGF", "setting": "U20S cells [2]; 24 hours", "result": 2.1, "unit": "fold"}, {"measurement": "Fold-Change CYR61", "setting": "U20S cells [2]; 24 hours", "result": 2.2, "unit": "fold"}, {"measurement": "Fold-Change DHRS2", "setting": "U20S cells [2]; 24 hours", "result": "−2.3", "unit": "fold"}, {"measurement": "Fold-Change DUSP5", "setting": "U20S cells [2]; 24 hours", "result": 3.8, "unit": "fold"}, {"measurement": "Fold-Change E2F2", "setting": "U20S cells [2]; 24 hours", "result": "−2.2", "unit": "fold"}, {"measurement": "Fold-Change EGR1", "setting": "U20S cells [2]; 24 hours", "result": 2.7, "unit": "fold"}, {"measurement": "Fold-Change ESM1", "setting": "U20S cells [2]; 24 hours", "result": 21.2, "unit": "fold"}, {"measurement": "Fold-Change GDF15", "setting": "U20S cells [2]; 24 hours", "result": 2.2, "unit": "fold"}, {"measurement": "Fold-Change HSPA5", "setting": "U20S cells [2]; 24 hours", "result": "−2.1", "unit": "fold"}, {"measurement": "Fold-Change ITGA2", "setting": "U20S cells [2]; 24 hours", "result": 3.6, "unit": "fold"}, {"measurement": "Fold-Change KIF20A", "setting": "U20S cells [2]; 24 hours", "result": "−2.4", "unit": "fold"}, {"measurement": "Fold-Change LAMA1", "setting": "U20S cells [2]; 24 hours", "result": 2.1, "unit": "fold"}, {"measurement": "Fold-Change RN7SK", "setting": "U20S cells [2]; 24 hours", "result": 15.3, "unit": "fold"}, {"measurement": "Fold-Change SCG5", "setting": "U20S cells [2]; 24 hours", "result": 4.9, "unit": "fold"}, {"measurement": "Fold-Change SLC7A11", "setting": "U20S cells [2]; 24 hours", "result": 4.1, "unit": "fold"}, {"measurement": "Fold-Change SNORD3A", "setting": "U20S cells [2]; 24 hours", "result": 4.2, "unit": "fold"}, {"measurement": "Fold-Change SNORD3C", "setting": "U20S cells [2]; 24 hours", "result": 4.8, "unit": "fold"}, {"measurement": "Fold-Change SNORD3D", "setting": "U20S cells [2]; 24 hours", "result": 4.8, "unit": "fold"}, {"measurement": "Fold-Change SPP1", "setting": "U20S cells [2]; 24 hours", "result": 6.6, "unit": "fold"}, {"measurement": "Fold-Change TGFBI", "setting": "U20S cells [2]; 24 hours", "result": "−2.0", "unit": "fold"}, {"measurement": "Cell viability", "setting": "MDA-MB-231; 2 hours exposure", "result": "No significant changes; also recorded: No changes in cell viability"}, {"measurement": "Cell viability", "setting": "MDA-MB-231; 4 hours exposure, p<0.01", "result": "significant decrease in viability"}]}]}
